Source: the supplement of paper PMC8253809

How the values were obtained:
DIPGX29 = H3.3 K27M diffuse intrinsic pontine glioma line; experiment: growth inhibition relative to DMSO (0) and positive control (1) (fraction); higher = more growth inhibition
Outline: (§1)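 For response-surface synergy modelling, fractional activity was derived from CellTiter-Glo luminescence without log2 transformation. On this scale, solvent wells are 0 and positive-control wells are 1. pHGG cell lines and astrocytes on Geltrex-coated 384-well plates received a two-drug dose matrix for 7 days in two plate orientations, and the one-drug arms supplied the single-agent values.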

iASTRO = astrocyte control; experiment: as above
Outline: as §1

O=C(NOC[C@H](O)CO)c1ccc(F)c(F)c1Nc1ccc(I)cc1F + CC1(C)OCCn2c1nc1c(N3CCOCC3)nc(-c3cnc(N)nc3)nc12 [GDC0084]
growth inhibition
Settings	compound 1 concentration 0.009766 µM	compound 1 concentration 0.01953 µM	compound 1 concentration 0.03906 µM	compound 1 concentration 0.07812 µM	compound 1 concentration 0.15625 µM	compound 1 concentration 0.3125 µM	compound 1 concentration 0.625 µM	compound 1 concentration 1.25 µM	compound 1 concentration 5 µM	compound 1 concentration 20 µM
DIPGX29, compound 2 concentration 0.03906 µM	0.638	0.646	0.648	0.701	0.69	0.738	0.748	0.755	0.895	0.958
DIPGX29, compound 2 concentration 0.07812 µM	0.15	0.207	0.157	0.241	0.208	0.306	0.424	0.498	0.796	0.919
DIPGX29, compound 2 concentration 0.15625 µM	0.213	0.194	0.204	0.242	0.215	0.307	0.451	0.518	0.813	0.909
DIPGX29, compound 2 concentration 0.3125 µM	0.306	0.272	0.343	0.357	0.359	0.415	0.506	0.652	0.859	0.947
DIPGX29, compound 2 concentration 0.625 µM	0.411	0.38	0.431	0.462	0.487	0.495	0.632	0.697	0.917	0.981
DIPGX29, compound 2 concentration 1.25 µM	0.531	0.526	0.609	0.603	0.627	0.625	0.79	0.803	0.952	0.985
DIPGX29, compound 2 concentration 5 µM	0.911	0.936	0.919	0.945	0.966	0.973	0.966	0.993	0.999	1
DIPGX29, compound 2 concentration 20 µM	0.933	0.947	0.948	0.968	0.964	0.984	0.989	0.996	1	1
iASTRO, compound 2 concentration 0.03906 µM	0.0351	0.072	0.0628	0.082	0.097	0.097	0.102	0.0401	-0.0539	-0.0303
iASTRO, compound 2 concentration 0.07812 µM	0.0868	0.0655	0.0861	0.0688	0.093	0.134	0.15	0.0961	0.0858	0.0424
iASTRO, compound 2 concentration 0.15625 µM	0.123	0.128	0.113	0.0769	0.0999	0.115	0.0997	0.104	0.0381	0.0629
iASTRO, compound 2 concentration 0.3125 µM	0.0584	0.0952	0.0549	0.0979	0.0838	0.126	0.158	0.146	0.164	0.196
iASTRO, compound 2 concentration 0.625 µM	0.0444	0.0912	0.0357	0.0123	0.112	0.148	0.303	0.443	0.516	0.588
iASTRO, compound 2 concentration 1.25 µM	0.21	0.214	0.279	0.319	0.44	0.568	0.731	0.784	0.811	0.836
iASTRO, compound 2 concentration 5 µM	0.756	0.777	0.798	0.811	0.83	0.858	0.875	0.887	0.901	0.887
iASTRO, compound 2 concentration 20 µM	0.822	0.806	0.821	0.841	0.849	0.873	0.889	0.901	0.9	0.909

CC1(C)OCCn2c1nc1c(N3CCOCC3)nc(-c3cnc(N)nc3)nc12 [GDC0084] + O=C(NOC[C@H](O)CO)c1ccc(F)c(F)c1Nc1ccc(I)cc1F [PD0325901]
growth inhibition
Settings	compound 1 concentration 0.009766 µM	compound 1 concentration 0.01953 µM	compound 1 concentration 0.03906 µM	compound 1 concentration 0.07812 µM	compound 1 concentration 0.15625 µM	compound 1 concentration 0.3125 µM	compound 1 concentration 0.625 µM	compound 1 concentration 1.25 µM	compound 1 concentration 5 µM	compound 1 concentration 20 µM
DIPGX29, compound 2 concentration 0.03906 µM	0.0494	0.0257	0.0988	0.197	0.244	0.304	0.508	0.598	0.891	0.96
DIPGX29, compound 2 concentration 0.07812 µM	0.246	0.221	0.24	0.295	0.368	0.426	0.565	0.653	0.915	0.964
DIPGX29, compound 2 concentration 0.15625 µM	0.138	0.16	0.18	0.286	0.308	0.402	0.515	0.704	0.92	0.97
DIPGX29, compound 2 concentration 0.3125 µM	0.198	0.252	0.293	0.316	0.389	0.507	0.616	0.696	0.949	0.981
DIPGX29, compound 2 concentration 0.625 µM	0.331	0.369	0.463	0.439	0.481	0.54	0.619	0.781	0.967	0.993
DIPGX29, compound 2 concentration 1.25 µM	0.511	0.539	0.543	0.583	0.62	0.67	0.806	0.869	0.983	0.999
DIPGX29, compound 2 concentration 5 µM	0.801	0.807	0.824	0.837	0.855	0.88	0.924	0.956	0.997	0.997
DIPGX29, compound 2 concentration 20 µM	0.903	0.914	0.9	0.927	0.923	0.969	0.97	0.989	1	1
iASTRO, compound 2 concentration 0.03906 µM	0.09	0.0454	0.118	0.094	0.0396	0.0144	-0.00856	0.184	0.758	0.807
iASTRO, compound 2 concentration 0.07812 µM	0.121	0.0878	0.134	0.118	0.109	0.12	0.0894	0.264	0.802	0.813
iASTRO, compound 2 concentration 0.15625 µM	0.0937	0.147	0.167	0.0963	0.0973	0.0664	0.0992	0.309	0.815	0.825
iASTRO, compound 2 concentration 0.3125 µM	0.149	0.11	0.135	0.176	0.144	0.0844	0.154	0.446	0.833	0.846
iASTRO, compound 2 concentration 0.625 µM	0.15	0.125	0.146	0.159	0.128	0.129	0.317	0.675	0.878	0.884
iASTRO, compound 2 concentration 1.25 µM	0.155	0.123	0.103	0.0682	0.108	0.207	0.459	0.766	0.878	0.893
iASTRO, compound 2 concentration 5 µM	0.108	0.0234	0.0231	0.0442	0.0662	0.219	0.546	0.791	0.875	0.891
iASTRO, compound 2 concentration 20 µM	0.14	0.0807	0.0709	0.0677	0.0926	0.24	0.627	0.821	0.881	0.902
